Literature values as cited in article PMC9516332 (Frontiers in Oncology, 2022).
Read-outs that look alike come from different tables or passages of the source.

Assays:
[1] = target: panel of 255 wild-type kinases (Homo sapiens, UniProt O95819); settings: kinase HGK, 1 µmol/L single concentration, cited from earlier work
[2] = target: panel of 255 wild-type kinases (Homo sapiens, UniProt P53779); settings: kinase JNK3, 1 µmol/L single concentration, cited from earlier work
[3] = target: T1, panel of 255 wild-type kinases (Homo sapiens, UniProt Q12851); settings: kinase MAP4K2, 1 µmol/L single concentration, cited from earlier work
T1 sequence (Q12851 1-820): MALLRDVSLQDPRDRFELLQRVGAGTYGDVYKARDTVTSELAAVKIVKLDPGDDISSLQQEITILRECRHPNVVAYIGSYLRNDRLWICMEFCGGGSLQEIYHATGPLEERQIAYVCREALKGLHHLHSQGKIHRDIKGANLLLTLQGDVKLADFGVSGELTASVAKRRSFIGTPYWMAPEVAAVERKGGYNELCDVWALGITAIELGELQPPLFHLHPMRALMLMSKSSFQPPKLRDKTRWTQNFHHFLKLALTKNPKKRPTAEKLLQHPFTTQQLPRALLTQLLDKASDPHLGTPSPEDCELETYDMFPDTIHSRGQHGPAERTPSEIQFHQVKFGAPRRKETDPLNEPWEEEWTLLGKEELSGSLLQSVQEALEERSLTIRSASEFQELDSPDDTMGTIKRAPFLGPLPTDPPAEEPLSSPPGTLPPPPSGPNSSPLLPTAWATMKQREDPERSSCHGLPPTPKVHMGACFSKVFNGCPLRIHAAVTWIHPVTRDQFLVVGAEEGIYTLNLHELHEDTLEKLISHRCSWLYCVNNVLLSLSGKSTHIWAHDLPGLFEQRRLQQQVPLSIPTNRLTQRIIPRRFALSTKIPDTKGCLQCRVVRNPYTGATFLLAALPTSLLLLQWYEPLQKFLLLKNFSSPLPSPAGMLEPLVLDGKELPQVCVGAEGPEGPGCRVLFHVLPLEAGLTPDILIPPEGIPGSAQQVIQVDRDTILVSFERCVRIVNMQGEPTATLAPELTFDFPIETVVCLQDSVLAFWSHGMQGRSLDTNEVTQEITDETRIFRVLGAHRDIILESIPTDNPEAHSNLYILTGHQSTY

[4] = target: panel of 255 wild-type kinases (Homo sapiens, UniProt Q15375); settings: kinase EPHA7, 1 µmol/L single concentration, cited from earlier work
[5] = target: T2, panel of 255 wild-type kinases (Homo sapiens, UniProt Q9BZL6); settings: kinase PKD2, 1 µmol/L single concentration, cited from earlier work
T2 sequence (Q9BZL6 1-878): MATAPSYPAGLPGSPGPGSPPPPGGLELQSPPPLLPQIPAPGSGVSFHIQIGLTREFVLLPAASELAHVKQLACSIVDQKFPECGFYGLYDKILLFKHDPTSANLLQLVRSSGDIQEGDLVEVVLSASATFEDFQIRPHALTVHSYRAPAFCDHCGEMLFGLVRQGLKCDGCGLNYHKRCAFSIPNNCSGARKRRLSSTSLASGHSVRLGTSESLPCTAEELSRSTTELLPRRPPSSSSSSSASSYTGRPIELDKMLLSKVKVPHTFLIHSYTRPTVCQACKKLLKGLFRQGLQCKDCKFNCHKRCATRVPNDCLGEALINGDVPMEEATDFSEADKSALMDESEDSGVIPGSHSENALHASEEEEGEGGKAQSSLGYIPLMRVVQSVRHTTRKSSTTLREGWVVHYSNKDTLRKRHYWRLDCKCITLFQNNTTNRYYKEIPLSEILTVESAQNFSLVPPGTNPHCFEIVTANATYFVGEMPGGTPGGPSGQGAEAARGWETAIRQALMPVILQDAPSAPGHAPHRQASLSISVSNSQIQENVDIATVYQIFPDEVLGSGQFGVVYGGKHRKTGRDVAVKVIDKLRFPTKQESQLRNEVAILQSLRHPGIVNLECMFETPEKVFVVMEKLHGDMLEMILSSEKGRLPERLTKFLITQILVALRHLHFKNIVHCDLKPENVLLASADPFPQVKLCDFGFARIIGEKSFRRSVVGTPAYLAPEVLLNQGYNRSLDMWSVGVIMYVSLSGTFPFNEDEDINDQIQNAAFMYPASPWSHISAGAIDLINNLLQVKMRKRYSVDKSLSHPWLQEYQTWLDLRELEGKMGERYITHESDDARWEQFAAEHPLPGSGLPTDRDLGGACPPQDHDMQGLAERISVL

[6] = target: panel of 255 wild-type kinases (Homo sapiens, UniProt O75676); settings: MSK2, 1 µmol/L single concentration, cited from earlier work
[7] = target: panel of 255 wild-type kinases (Homo sapiens, UniProt P08069); settings: kinase IGF1R, 1 µmol/L single concentration, cited from earlier work
[8] = target: panel of 255 wild-type kinases (Homo sapiens, UniProt Q9Y243); settings: AKT3 kinase assay, 1 µmol/L single concentration, cited from earlier work
[9] = ref DOI: 10.1371/journal.pone.0092146
[10] = ref DOI: 10.1158/1535-7163.MCT-18-0877

| Compound | %-inhibition at 1 µmol/L, HGK [1, 9] [%] | %-inhibition at 1 µmol/L, JNK3 [2, 9] [%] | %-inhibition at 1 µmol/L, MAP4K2 [3, 9] [%] | %-inhibition at 1 µmol/L, EPHA7 [4, 9] [%] | %-inhibition at 1 µmol/L, PKD2 [5, 9] [%] | %-inhibition, MSK2 [6, 10] [%] | %-inhibition at 1 µmol/L, HGK [1, 10] [%] | %-inhibition at 1 µmol/L, IGF1R [7, 10] [%] | %-inhibition at 1 µmol/L, JNK3 [2, 10] [%] | %-inhibition at 1 µmol/L, MAP4K2 [3, 10] [%] | %-inhibition at 1 µmol/L, EPHA7 [4, 10] [%] | %-inhibition at 1 µmol/L, PKD2 [5, 10] [%] | %-inhibition AKT3 [8, 10] [%] | %-inhibition, MSK2 [6, 9] [%] | %-inhibition at 1 µmol/L, IGF1R [7, 9] [%] | %-inhibition AKT3 [8, 9] [%] |
| --- | --- | --- | --- | --- | --- | --- | --- | --- | --- | --- | --- | --- | --- | --- | --- | --- |
| CC(C)(C)c1nc(-c2cccc(NS(=O)(=O)c3c(F)cccc3F)c2F)c(-c2ccnc(N)n2)s1 [dabrafenib] | 7 | 5.59 | 8 | 13 | 82 | – | – | – | – | – | – | – | – | – | – | – |
| C=CC(=O)N1CCC[C@@H](n2nc(-c3ccc(Oc4ccccc4)cc3)c3c(N)ncnc32)C1 [ibrutinib] | – | – | – | – | – | -2 | -0.0249 | 7.45 | 1 | -4.43 | 7 | -3.2 | -2.25 | – | – | – |
| CO[C@@H]1[C@H](N(C)C(=O)c2ccccc2)C[C@H]2O[C@]1(C)n1c3ccccc3c3c4c(c5c6ccccc6n2c5c31)C(=O)NC4 [midostaurin] | – | – | – | – | – | 77 | 97 | 24 | – | 94 | 19 | – | – | – | – | – |
| C=CC(=O)Nc1cc(Nc2nccc(-c3cn(C)c4ccccc34)n2)c(OC)cc1N(C)CCN(C)C [osimertinib] | – | – | – | – | – | 0.681 | 80 | 84 | 1.89 | -0.698 | 2.35 | 16 | -1.74 | – | – | – |
| CC(=O)Nc1cccc(-n2c(=O)n(C3CC3)c(=O)c3c(Nc4ccc(I)cc4F)n(C)c(=O)c(C)c32)c1 [trametinib] | -3.71 | -2.37 | 4 | -5 | -3.28 | – | – | – | – | – | – | – | – | -4.75 | -10 | -5.3 |
| CCCS(=O)(=O)Nc1ccc(F)c(C(=O)c2c[nH]c3ncc(-c4ccc(Cl)cc4)cc23)c1F [vemurafenib] | 26 | 2.85 | 43 | -0.639 | -13 | – | – | – | – | – | – | – | – | -1 | 10 | -0.678 |
